# Test results as given in patent US20190167647A1, “PHARMACEUTICAL COMPOSITION FOR STROKE TREATMENT BASED ON AMPK INHIBITION” (INDUSTRY ACADEMY COOPERATION FOUNDATION OF SEJONG UNIVERSITY, priority 2016, published 2019).
# Tests used:
# [1] = Free zinc concentration by pZn meter (test tube); format: physicochemical; conditions: 2.5 to 20 μM drug, ZnAF 2.5 μM
# Protocol: In order to measure free zinc concentration levels, the drug #28 of the present invention was used for treatment in different concentrations (2.5 to 20 μM) along with ZnAF (2.5 μM) as a zinc fluorescent material on a test tube. On the other hand, a control group uses clioquinol (1 to 5 μM) well known as a very stronger zinc chelator. A free zinc concentration was measured by a pZn meter (NeuroBioTex Inc.).
# [2] = system: cultured cerebral cortex neurons of a mouse; assay: Zinc neurotoxicity inhibition, LDH assay (tertiary screening); format: cell-based; conditions: 300 μM zinc 10 min
# Protocol: Cerebral cortex neurons of a mouse used in the present invention were extracted from the mouse embryos brain and cultured, followed by further culturing the same using a Dulbecco's modified Eagle's medium (DMEM, Gibco, Grand Island, N.Y., US) containing 5% fetal bovine serum (FBS) and 5% horse serum (HS) under conditions of 95% humidity, 5% CO2 and 37° C. temperature. For activation and differentiation of the above cells, these cells were proliferated at a density of 2×10^4 cells in 24-well tissue culture plate. Further, prior to treatment using zinc and the compounds, the cells were incubated in MEM medium without FBS and HS.
# More particularly, the cultured cerebral cortex neurons of a mouse were briefly exposed to 300 μM zinc for 10 minutes, and then treated with the selected 40 drugs, respectively, in order to observe neuro-protective effects. A degree of neuronal death of these cells was quantified by LDH assay wherein effects of individual drugs were averaged to result in a numerical value, and separate experiments were performed on each of the selected drugs 4 times, respectively (FIG. 4).
# [3] = Free zinc concentration by fluorescent dye (Newport green DCF, FluoZin-3); format: physicochemical
# Protocol: Further, in conjunction with clioquinol (20 μM) or the drug #28 (20 μM), a zinc fluorescent dye, i.e., Newport green DCF (0.5 μM, Kd(Zn)=1 uM) or FluoZin-3 (0.5 μM, Kd(Zn)=15 nM) was used for measurement of free zinc concentration.
# [4] = system: cultured cerebral cortex neurons of a mouse; assay: Inhibition of a variety of neurotoxicity, LDH assay (quaternary screening); format: cell-based; conditions: 20 μM, NMDA, FeCl2, H2O2, TPEN, staurosporine, etoposide toxicity
# Protocol: More particularly, the cultured cerebral cortex neurons of a mouse were treated with 50 μM NMDA, 50 μM FeCl2, 100 μM H2O2, 2 μM TPEN (N,N,N′,N′-tetrakis (2-pyridylmethyl) ethylenediamine, Sigma), 500 nM staurosporine (Abcam) and 10 μM etoposide (Sigma), respectively, to induce neurotoxicity, followed by treatment using the selected 7 compounds at a concentration of 20 μM in order to observe neuro-protective effects. A degree of apoptosis of these cells was quantified by LDH assay. The neurotoxicity models used above include, for example, excitotoxicity, oxidative damage and apoptosis that are considered as a cause mechanism of stroke, in particular, the excitotoxicity model was NMDA, the oxidative damage model was iron toxicity and H2O2 toxicity models, and the apoptosis model was TPEN, staurosporine and etoposide toxicity models. The TPEN is a zinc chelator which is well known to cause typical apoptosis in neuronal cells, staurosporine is an enzyme inhibitor (kinase inhibitor) which is also well known as one of typical apoptosis inductive materials, and etoposide is a drug known to cause apoptosis due to DNA damage.
# neuronal cells = assay: Ionomycin (calcium ionophore) neurotoxicity; format: cell-based; conditions: 10 to 60 μM tested
# Protocol: In order to determine whether the above result is obtained by the chelation of Ca^2+ ions other than the drug #28, protective effects of the drug #28 (10 to 60 μM) after treatment using ionomycin, which is a calcium ion permeable carrier (‘calcium ionophore’) directly increasing the intracellular calcium concentration, were under observation. Further, using a Fura-2 dye that is combined with calcium to represent fluorescence, it was monitored whether the drug #28 is combined with calcium on a test tube and represents chelating effects.
# mouse cortical cultures = assay: TPEN-induced caspase-3 activity; format: cell-based
# Description: Generally, application of TPEN as a zinc chelator easily flowing into the cells causes a cell death in the form of typical apoptosis (EDTA is not introduced into the cells). When adding zinc to the above treatment, intracellular free zinc ions are retained thus to reduce neuronal death and further reduce caspase-3 protease activity in the apoptosis process. Under expectation such that: the drug #28 and clioquinol may not only serve as a chelator but also play a role of an ion permeable carrier; these drugs flow into cells as combined with zinc; thereafter, the zinc is removed from the drug because a concentration of free zinc in the cytoplasm is too low; therefore, the concentration of free zinc in the cytoplasm is increased thus to reduce neurotoxicity due to TPEN, caspase-3 activity and neurotoxicity (LDH secretion) were under observation after treatment using zinc, the drug #28 and clioquinol.
# [5] = system: male Sprague-Dawley (SD) rat; assay: Permanent middle cerebral artery occlusion (MCAO) stroke model; format: in vivo
# Protocol: More particularly, a permanent middle cerebral artery (MCA) occlusion model was prepared using a male Sprague-Dawley (SD) rat aged 8 to 9 weeks. At time points of 30 minutes before MCAO and 10 minutes after the same, cerebral blood flow (CBF) was measured by a laser-doppler flowmeter and the measured results are shown in Table 3 below. Then, 15 minutes after middle cerebral artery occlusion (MCAO), the compound #28, which is finally selected as an AMPK inhibitor (75 ng/3 μl), or a vehicle (10% DMSO) was provided to an area of 0.8 mm on a back and 1.2 mm on a lateral of bregma at a depth of 3.8 mm through intra-cerebroventricular injection. Thereafter, a degree of lack of movement (‘motor deficit’) was evaluated in the rat, in particular, standards for evaluation are classified as follows (Longa et al., 1989): no deficiency (normal); failure of extending the front foots when vertically stopping (mild); rotation on the opposite side (moderate); and rotation loss (loss of circling) or loss of reflex motion (serious deficit). After induction of ischemia in the rat model, the brain was obtained at the time of lapse of 24 hours, followed by determining a level of cerebral infraction by staining the brain with 2% 2,3,5-triphenyl tetrazolium chloride (TTC).
# [6] = target: T1, recombinant AMPK (α2/β1/γ1) (Homo sapiens, UniProt P54646); assay: AMPK enzymatic activity assay (CycLex kit); format: biochemical
# T1 construct: purchased CycLex, Japan
# Protocol: More particularly, AMPK enzymatic activity was measured by an AMPK activity assay kit (CycLex, Japan) and recombinant AMPK (α2/β1/γ1 CycLex, Japan).
# T1 sequence (P54646 whole entry): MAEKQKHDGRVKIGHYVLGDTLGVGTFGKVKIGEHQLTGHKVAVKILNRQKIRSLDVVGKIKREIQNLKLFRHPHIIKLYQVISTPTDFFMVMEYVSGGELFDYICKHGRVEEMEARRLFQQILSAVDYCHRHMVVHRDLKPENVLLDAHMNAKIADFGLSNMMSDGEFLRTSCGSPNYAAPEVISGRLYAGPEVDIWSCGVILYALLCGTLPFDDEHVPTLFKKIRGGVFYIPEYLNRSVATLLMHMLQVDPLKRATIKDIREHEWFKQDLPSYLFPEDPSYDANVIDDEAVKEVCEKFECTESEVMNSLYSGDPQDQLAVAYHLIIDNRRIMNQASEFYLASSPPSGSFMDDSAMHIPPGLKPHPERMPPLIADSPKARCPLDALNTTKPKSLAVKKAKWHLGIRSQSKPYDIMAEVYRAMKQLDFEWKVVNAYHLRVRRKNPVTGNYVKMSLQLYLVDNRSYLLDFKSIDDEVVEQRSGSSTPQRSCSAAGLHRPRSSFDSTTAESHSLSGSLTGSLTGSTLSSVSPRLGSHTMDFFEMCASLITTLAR
# T1 sequence (Q9Y478 whole entry partner): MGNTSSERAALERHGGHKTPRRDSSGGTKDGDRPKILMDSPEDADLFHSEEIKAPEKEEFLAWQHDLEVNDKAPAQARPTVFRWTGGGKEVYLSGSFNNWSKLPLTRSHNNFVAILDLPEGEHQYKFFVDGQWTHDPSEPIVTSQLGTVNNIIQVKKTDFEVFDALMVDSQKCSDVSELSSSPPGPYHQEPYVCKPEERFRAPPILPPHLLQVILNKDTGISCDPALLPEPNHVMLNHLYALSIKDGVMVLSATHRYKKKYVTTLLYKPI
# T1 sequence (P54619 whole entry partner): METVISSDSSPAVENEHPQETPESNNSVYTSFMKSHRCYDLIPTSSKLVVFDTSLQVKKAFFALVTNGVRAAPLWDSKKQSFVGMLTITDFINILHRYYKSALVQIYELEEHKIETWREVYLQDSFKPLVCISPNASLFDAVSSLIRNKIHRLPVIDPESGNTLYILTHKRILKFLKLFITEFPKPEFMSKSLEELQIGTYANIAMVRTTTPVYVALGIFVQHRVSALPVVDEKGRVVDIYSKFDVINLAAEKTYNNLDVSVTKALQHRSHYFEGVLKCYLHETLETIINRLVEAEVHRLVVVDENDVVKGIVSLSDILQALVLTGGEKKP
structure (smiles),measurement,setting,value
"O=C1N=C(Nc2cccc(O)c2)S/C1=C\c1c[nH]c2ccccc12 [compound 28, (Z)-5-((1H-indol-3-yl)methylene)-2-((3-hydroxyphenyl)amino)thiazol-4(5H)-one]",free zinc concentration,[1],reduced in a concentration-dependent manner
same,inhibition of zinc toxicity,[2],significantly inhibit zinc toxicity
same,zinc affinity compared to clioquinol,[3],considerably low compared to clioquinol
same,"free zinc concentration, low concentration zinc","[3]; 20 μM, FluoZin-3 (FIG. 13)",did not show remarkable effects
same,"free zinc concentration, high concentration zinc","[3]; 20 μM, Newport green DCF (FIG. 12)",exhibited effects of decreasing the free zinc concentration
same,free zinc ions,"[3]; 20 μM, Newport green DCF or FluoZin-3",reduce free zinc ions
same,inhibitory effects on neurotoxicity,[4],inhibitory effects on any toxicity
same,concentration exhibiting toxicity protective effects against ionomycin,neuronal cells,more than 40 μM
same,caspase-3 activity induced by TPEN,mouse cortical cultures,significantly reduce caspase-3 activity induced by TPEN
same,brain damage due to permanent MCAO,"[5]; 75 ng/3 μl intra-cerebroventricular 15 min after MCAO, TTC staining at 24 hours",significantly inhibit brain damage
same,Weight reduction,"[5]; MCAO rat, 75 ng/3 μl intra-cerebroventricular",43.8 ± 6.1 g
same,remaining activity at 10 µM,[6],3.97%
